# Measured values: patent publication US20090326037A1 (priority 2005, published 2009)
# Structures can show the parent of a compound that is named as a salt.
# Tested on: influenza A/Singapore/1/57 virus
# Assay: microbe, parasite or virus in culture
# Type: cell-based
smiles,measurement,setting,value
"CCOC(=O)c1c(CSc2ccccc2)n(C)c2cc(Br)c(O)c(CN(C)C)c12 [Arbidol, 1-methyl-2-phenylthiomethyl-3-carbethoxy-4-dimethylaminomethyl-5-oxy-6-bromindol hydrochloride]",suppression of virus reproduction,1 μg of arbidol with 10-12 mg of zanamivir or oseltamivir,100%
same,Percent of inhibition of OD 490,"A or B 0.3 μg/ml + Zanamivir 0.3 μg, added 2 hours after infection",20%
same,Percent of inhibition of OD 490,"A or B 0.3 μg/ml + Zanamivir 1 μg, added 2 hours after infection",30%
same,Percent of inhibition of OD 490,"A or B 0.3 μg/ml + Zanamivir 3.3 μg, added 2 hours after infection",37%
same,Percent of inhibition of OD 490,"A or B 0.3 μg/ml + Zanamivir 10 μg, added 2 hours after infection",48%
same,Percent of inhibition of OD 490,"A or B 0.3 μg/ml + Zanamivir 33 μg, added 2 hours after infection",60%
same,Percent of inhibition of OD 490,"A or B 1 μg/ml + Zanamivir 0.3 μg, added 2 hours after infection",33%
same,Percent of inhibition of OD 490,"A or B 1 μg/ml + Zanamivir 3.3 μg, added 2 hours after infection",46%
same,Percent of inhibition of OD 490,"A or B 1 μg/ml + Zanamivir 10 μg, added 2 hours after infection",100%
same,Percent of inhibition of OD 490,"A or B 1 μg/ml + Zanamivir 33 μg, added 2 hours after infection",100%
same,Percent of inhibition of OD 490,"A or B 3 μg/ml + Zanamivir 0.3 μg, added 2 hours after infection",60%
same,Percent of inhibition of OD 490,"A or B 3 μg/ml + Zanamivir 1 μg, added 2 hours after infection",58%
same,Percent of inhibition of OD 490,"A or B 3 μg/ml + Zanamivir 3.3 μg, added 2 hours after infection",93%
same,Percent of inhibition of OD 490,"A or B 3 μg/ml + Zanamivir 10 μg, added 2 hours after infection",100%
same,Percent of inhibition of OD 490,"A or B 3 μg/ml + Zanamivir 33 μg, added 2 hours after infection",100%
same,Percent of inhibition of OD 490,"A or B 5 μg/ml + Zanamivir 0.3 μg, added 2 hours after infection",69%
same,Percent of inhibition of OD 490,"A or B 5 μg/ml + Zanamivir 1 μg, added 2 hours after infection",85%
same,Percent of inhibition of OD 490,"A or B 5 μg/ml + Zanamivir 3.3 μg, added 2 hours after infection",88%
same,Percent of inhibition of OD 490,"A or B 5 μg/ml + Zanamivir 10 μg, added 2 hours after infection",100%
same,Percent of inhibition of OD 490,"A or B 5 μg/ml + Zanamivir 33 μg, added 2 hours after infection",100%
same,Percent of inhibition of OD 490,"A or B 10 μg/ml + Zanamivir 0.3 μg, added 2 hours after infection",71%
same,Percent of inhibition of OD 490,"A or B 10 μg/ml + Zanamivir 1 μg, added 2 hours after infection",85%
same,Percent of inhibition of OD 490,"A or B 10 μg/ml + Zanamivir 3.3 μg, added 2 hours after infection",98%
same,Percent of inhibition of OD 490,"A or B 10 μg/ml + Zanamivir 10 μg, added 2 hours after infection","100, 100%"
same,Percent of inhibition of OD 490,"A or B 10 μg/ml + Zanamivir 33 μg, added 2 hours after infection","100, 100%"
same,Percent of inhibition of OD 490,"A or B 10 μg/ml alone (Zanamivir 0), added 2 hours after infection",22%
same,Percent of inhibition of OD 490,"A or C 0.3 μg/ml + Oseltamivir 0.4 μg, added 2 hours after infection",35%
same,Percent of inhibition of OD 490,"A or C 0.3 μg/ml + Oseltamivir 4.1 μg, added 2 hours after infection",37%
same,Percent of inhibition of OD 490,"A or C 0.3 μg/ml + Oseltamivir 12.3 μg, added 2 hours after infection",47%
same,Percent of inhibition of OD 490,"A or C 1 μg/ml + Oseltamivir 0.4 μg, added 2 hours after infection",48%
same,Percent of inhibition of OD 490,"A or C 1 μg/ml + Oseltamivir 1.2 μg, added 2 hours after infection",59%
same,Percent of inhibition of OD 490,"A or C 1 μg/ml + Oseltamivir 4.1 μg, added 2 hours after infection",56%
same,Percent of inhibition of OD 490,"A or C 1 μg/ml + Oseltamivir 12.3 μg, added 2 hours after infection",100%
same,Percent of inhibition of OD 490,"A or C 1 μg/ml + Oseltamivir 41 μg, added 2 hours after infection",100%
same,Percent of inhibition of OD 490,"A or C 3 μg/ml + Oseltamivir 0.4 μg, added 2 hours after infection",62%
same,Percent of inhibition of OD 490,"A or C 3 μg/ml + Oseltamivir 1.2 μg, added 2 hours after infection",58%
same,Percent of inhibition of OD 490,"A or C 3 μg/ml + Oseltamivir 4.1 μg, added 2 hours after infection",90%
same,Percent of inhibition of OD 490,"A or C 3 μg/ml + Oseltamivir 12.3 μg, added 2 hours after infection",100%
same,Percent of inhibition of OD 490,"A or C 3 μg/ml + Oseltamivir 41 μg, added 2 hours after infection","100, 100%"
same,Percent of inhibition of OD 490,"A or C 5 μg/ml + Oseltamivir 0.4 μg, added 2 hours after infection",79%
same,Percent of inhibition of OD 490,"A or C 5 μg/ml + Oseltamivir 1.2 μg, added 2 hours after infection",84%
same,Percent of inhibition of OD 490,"A or C 5 μg/ml + Oseltamivir 4.1 μg, added 2 hours after infection",100%
same,Percent of inhibition of OD 490,"A or C 5 μg/ml + Oseltamivir 12.3 μg, added 2 hours after infection",98%
same,Percent of inhibition of OD 490,"A or C 5 μg/ml + Oseltamivir 41 μg, added 2 hours after infection","100, 100%"
same,Percent of inhibition of OD 490,"A or C 10 μg/ml + Oseltamivir 0.4 μg, added 2 hours after infection",70%
same,Percent of inhibition of OD 490,"A or C 10 μg/ml + Oseltamivir 1.2 μg, added 2 hours after infection",85%
same,Percent of inhibition of OD 490,"A or C 10 μg/ml + Oseltamivir 4.1 μg, added 2 hours after infection",100%
same,Percent of inhibition of OD 490,"A or C 10 μg/ml + Oseltamivir 12.3 μg, added 2 hours after infection",100%
same,Percent of inhibition of OD 490,"A or C 10 μg/ml + Oseltamivir 41 μg, added 2 hours after infection",100%
same,Percent of inhibition of OD 490,"A or C 10 μg/ml alone (Oseltamivir 0), added 2 hours after infection",20%
same,Percent of inhibition of OD 490,"A or D 1 μg/ml + Amantadin 0.3 μg/ml, added 30 min prior to infection",30%
same,Percent of inhibition of OD 490,"A or D 1 μg/ml + Amantadin 1 μg/ml, added 30 min prior to infection",30%
same,Percent of inhibition of OD 490,"A or D 1 μg/ml + Amantadin 5 μg/ml, added 30 min prior to infection",52%
same,Percent of inhibition of OD 490,"A or D 1 μg/ml + Amantadin 10 μg/ml, added 30 min prior to infection",59%
same,Percent of inhibition of OD 490,"A or D 1 μg/ml + Remantadin 0.3 μg/ml, added 30 min prior to infection",31%
same,Percent of inhibition of OD 490,"A or D 1 μg/ml + Remantadin 1 μg/ml, added 30 min prior to infection",33%
same,Percent of inhibition of OD 490,"A or D 1 μg/ml + Remantadin 5 μg/ml, added 30 min prior to infection",50%
same,Percent of inhibition of OD 490,"A or D 1 μg/ml + Remantadin 10 μg/ml, added 30 min prior to infection",59%
same,Percent of inhibition of OD 490,"A or D 1 μg/ml alone (Amantadin 0), added 30 min prior to infection",30%
same,Percent of inhibition of OD 490,"A or D 1 μg/ml alone (Remantadin 0), added 30 min prior to infection",30%
